The text below walks through data of patent EP4722228A1, “NEW COMPOUND TARGETING MUSK AND USE THEREOF” (The University of Tokyo, priority 2023, dated 2024).

Numbered stars: 1 amine (or outer) side, 2 acyl side, 3 side chain; on linkers, the order of the positions; unused ones are H or OH. Bridge positions count the residues as written; N and C are the ends. Square brackets hold non-standard residues; d marks the D form. Peptide text beside a SMILES is read from it. I, II: the chains in the order shown. X1 = O=C(CCN1C(=O)CC([*:1])C1=O)NCCOCCOCCOCCOCCOCCOCCOCCOCCOCCOCCOCCNC(=O)CCN1C(=O)CC([*:2])C1=O; X2 = O=C(CCN1C(=O)CC([*:1])C1=O)NCCCOCCOCCOCCCNC(=O)CCN1C(=O)CC([*:2])C1=O

One may read the koff as a measure of how fast the partners let go of each other. The term kon denotes a measure of how fast the partners come together. Broadly, the Kd is the constant that tells how readily two partners part at equilibrium.

In assay [1] the test system is C2C12 myotubes (Agrin-induced AChR clusters). Put plainly: Agrin-induced AChR clusters in myotubes with tyrosine kinase inhibitors. The following applies: 10 pM recombinant rat agrin, inhibitor (3 nM) added simultaneously, 20 hours; for MuSK inhibitory effects: presumed. The assay is classed as cell-based, mouse. From the text: The mouse myoblast-derived cell line C2C12 (CRL-1772) was purchased from the American Type Culture Collection and used. For subculture, Dulbecco's Modified Eagle Medium (DMEM, high glucose, GlutaMAX supplement, pyruvate; GIBCO) supplemented with 20% fetal bovine serum (FBS; GIBCO) was used. For passage, after the culture medium was removed by suction, adherent cells were washed with phosphate buffered saline (PBS(-)), and HBSS (GIBCO) containing no Mg^2+ and Ca^2+ and containing 0.25% trypsin and 1 mM ethylenediaminetetraacetic acid was added, and the mixture was reacted in a CO2 incubator (37°C, 5% CO2) for 5 minutes. The detached cells were collected and then centrifuged at 1000 rpm at 4°C for 5 minutes (Sorvall X4R Pro, Thermo Fisher Scientific Inc.). After the supernatant was removed by suction, the cells were suspended in fresh culture medium, and 100 µL was seeded into a 96-well plate (BioCoat Collagen I 96-well Black/Clear plate, Corning Inc.) and cultured in a CO2 incubator (37°C, 5% CO2) until reaching confluence, typically within 72 hours. Subsequently, the culture medium was removed and the first medium change was performed with DMEM containing 2% horse serum (GIBCO) for induction of myotube cell differentiation.
A differentiation medium supplemented with an appropriate amount of the homodimer of the cyclic peptide MuSK7 (MuSK7 PEG11 dimer) was prepared in advance in a 96-well plate (Nunclon Δ Surface, 167008, Nunc), and used at 100 µL/well at the time of the second medium change in the process of inducing differentiation into myotubes. 20 hours after addition of the homodimer of the cyclic peptide MuSK7, the medium was removed, the cells were washed with PBS(-), and then fixed at room temperature for 15 minutes with PBS(-) containing 4% formaldehyde. After washing several times with 1% BSA-PBS(-), fluorescently labeled α-bungarotoxin (α-Btx, Alexa Fluor 488 conjugate; Invitrogen) was added to 1% BSA-PBS(-) at a final concentration of 100 nM, and after adding this to the wells, the mixture was allowed to stand at room temperature under a light-shielded condition for 30 minutes. After washing the cells several times with 1% BSA-PBS(-), 100 µL of PBS(-) was added to each well, and fluorescence observation was performed using a fluorescence imaging device. For observation of fluorescently labeled AChR clusters, an EVOS M7000 imaging system (Thermo Fisher Scientific Inc.) was used. During fluorescence image observation, a 10× objective lens was used, and tiff images of an area equivalent to 1 mm^2 were obtained. […] The average number of AChR clusters counted from the three tiff images derived from the same well was calculated and drawn on a graph.
MuSK inhibitor candidates were searched in the KinaseNET database (http://www.kinasenet.ca/) published as an open resource by Kinexus Bioinformatics Corporation (Canada), and three tyrosine kinase inhibitors (AST-487, Foretinib, and Sorafenib) were identified. Next, groups were prepared in which 10 pM recombinant rat agrin protein (550-AG, R&D Systems) derived from C2C12 myotubes was added alone, or in which each tyrosine kinase inhibitor (3 nM) was added simultaneously, and detection and observation of Agrin-induced AChR clusters were performed 20 hours after compound addition (five types, Crizotinib, Linifanib, AST-1306, Dovitinib, and BMS-754807, were used as non-MuSK inhibitory tyrosine kinase inhibitors).

Another assay deals with T1, human MuSK (Homo sapiens, UniProt O15146).
T1 construct: DNA corresponding to the extracellular portion (amino acids 1-493) was amplified by a PCR method; made in house; host or cells: Expi293F cells
T1 sequence (O15146 24-493): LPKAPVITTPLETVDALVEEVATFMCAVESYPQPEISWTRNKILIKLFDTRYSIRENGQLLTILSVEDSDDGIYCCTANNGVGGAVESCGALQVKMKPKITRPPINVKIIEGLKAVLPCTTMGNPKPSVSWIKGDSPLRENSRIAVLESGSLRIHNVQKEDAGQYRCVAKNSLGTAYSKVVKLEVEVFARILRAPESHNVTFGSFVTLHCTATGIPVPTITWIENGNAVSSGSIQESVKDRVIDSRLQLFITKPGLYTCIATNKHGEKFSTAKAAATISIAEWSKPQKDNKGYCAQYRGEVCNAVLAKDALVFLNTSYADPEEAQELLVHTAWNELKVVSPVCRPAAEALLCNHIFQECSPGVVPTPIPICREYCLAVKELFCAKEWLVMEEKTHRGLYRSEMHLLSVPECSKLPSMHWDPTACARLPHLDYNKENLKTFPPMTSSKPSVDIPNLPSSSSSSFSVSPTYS
In words: SPR binding activity test to human MuSK (Biacore). To be noted: human MuSK, peptide homodimers. Here is the method:
The human MuSK protein (extracellular portion) was prepared as a recombinant protein as follows. Using a Flexi clone (FXC31275, Promega Corporation) encoding Human MuSK isoform 1 precursor (NCBI Reference Sequence: NP_005583.1) as a template, DNA corresponding to the extracellular portion (amino acids 1-493) was amplified by a PCR method. XhoI and EcoRI restriction enzyme recognition sequences were added to both the 5' and 3' ends of the amplified DNA sequence, and these were used for insertion into the multiple cloning site of a pCAG-Neo hIgG1-Fc plasmid (Fujifilm Wako Pure Chemical Corporation). This plasmid (pCAG-Neo hMuSK-Fc) enables expression of a chimeric protein of the secretory human MuSK extracellular portion and human IgG1 Fc (hMuSK-Fc; molecular weight of approximately 200 kDa) in animal cells. In practice, ExpiFectamine 293 reagent (Invitrogen) was used to transfect the pCAG-Neo hMuSK-Fc plasmid into Expi293F cells (Invitrogen), and shaking culture was carried out (for 6 days) in an incubator containing 8% CO2. Next, the culture supernatant was collected, centrifuged, and sterilized by filtration through a 0.22 µm filter. The obtained culture supernatant was subjected to Protein G purification, and finally, a purified hMuSK-Fc sample with 99.96% purity (AKTA-FPLC analysis) was obtained.
The strength of binding between MuSK and the cyclic peptides was evaluated by quantitatively measuring the binding kinetics (binding affinity (dissociation constant) KD) of the cyclic peptides to MuSK immobilized on a sensor chip via an Fc tag, using surface plasmon resonance (SPR).
According to the standard immobilization protocol provided by the manufacturer, Fc-tagged human/mouse/rat MuSK was immobilized on a Protein G chip or a Protein A chip (Cytiva). A running buffer for the monomer/dimer peptides contained 0.010 M phosphate, 0.14 M NaCl, 0.0027 M KCl, 0.05% (v/v) Tween 20, and 0.1% (v/v) DMSO. A running buffer for the monomer/dimer U-bodies contained 0.010 M phosphate, 0.14 M NaCl, 0.0027 M KCl, and 0.05% (v/v) Tween 20. A series of concentrations of each monomer peptide, dimer peptide, monomer U-body, and dimer U-body was injected as analytes. A 1:1 binding fitting analysis was applied using Biacore evaluation software, and ka, kd, and KD values were determined.
Fc-tagged human MuSK was prepared according to the procedure described in Example 1(1). In addition, Fc-tagged mouse MuSK was used by expressing a nucleotide sequence encoding the Fc-tagged mouse MuSK extracellular domain (SEQ ID NO: 34). In addition, Fc-tagged rat MuSK was used as a chimeric protein of rat MuSK and an Fc protein, namely, Recombinant Rat MuSK Fc Chimera Protein (catalog number: 9847-MK-050, R&D Systems).
The affinity of the U-bodies and their complexes obtained as described above for MuSK of human, rat, and mouse was evaluated (binding activity test). The test was carried out according to the procedure described in Example 1(3). However, for the complexes of U-bodies, surface plasmon resonance (SPR) analysis was carried out using a Biacore 8K (Cytiva).

For the molecule `CNC(=O)c1cc(Oc2ccc(NC(=O)Nc3ccc(Cl)c(C(F)(F)F)c3)cc2)ccn1` [Sorafenib], the MuSK inhibitory effects result in assay [1] is listed as “weaker MuSK inhibitory effects compared with AST-487”.
As for `C=CC(=O)Nc1ccc2ncnc(Nc3ccc(OCc4cccc(F)c4)c(Cl)c3)c2c1` [AST-1306], the “number of AChR clusters” value in assay [1] is “comparable to that in the negative control group (DMSO alone)”.
The same measure, in the same setting: then `C[C@@]1(C(=O)Nc2ccc(F)nc2)CCCN1c1nc(Nc2cc(C3CC3)n[nH]2)c2cccn2n1` [BMS-754807], with “comparable to that in the negative control group (DMSO alone)”.
`COc1cc2c(Oc3ccc(NC(=O)C4(C(=O)Nc5ccc(F)cc5)CC4)cc3F)ccnc2cc1OCCCN1CCOCC1` [Foretinib]: in assay [1], the MuSK inhibitory effects entry was “weaker MuSK inhibitory effects compared with AST-487”.
At human MuSK, `CC[C@H](C)[C@@H]1NC(=O)[C@H](CC(N)=O)NC(=O)[C@H](C(C)C)NC(=O)[C@H](Cc2ccc(O)cc2)NC(=O)CNC(=O)[C@@H]2CCCN2C(=O)[C@H](CCC(N)=O)NC(=O)[C@H](CC(C)C)NC(=O)[C@H](Cc2ccc(O)cc2)NC(=O)[C@H](Cc2c[nH]c3ccccc23)NC(=O)[C@@H](Cc2ccc(O)cc2)NC(=O)CSC[C@@H](C(=O)N[C@@H](CSC2CC(=O)N(CCC(=O)NCCCOCCOCCOCCCNC(=O)CCN3C(=O)CC(SC[C@H](NC(=O)[C@@H]4CSCC(=O)N[C@H](Cc5ccc(O)cc5)C(=O)N[C@@H](Cc5c[nH]c6ccccc56)C(=O)N[C@@H](Cc5ccc(O)cc5)C(=O)N[C@@H](CC(C)C)C(=O)N[C@@H](CCC(N)=O)C(=O)N5CCC[C@H]5C(=O)NCC(=O)N[C@@H](Cc5ccc(O)cc5)C(=O)N[C@@H](C(C)C)C(=O)N[C@@H](CC(N)=O)C(=O)N[C@@H]([C@@H](C)CC)C(=O)N[C@@H](C(C)C)C(=O)N[C@@H]([C@@H](C)O)C(=O)N[C@@H](CO)C(=O)N[C@@H](Cc5ccc(O)cc5)C(=O)N[C@@H](Cc5c[nH]cn5)C(=O)N4)C(N)=O)C3=O)C2=O)C(N)=O)NC(=O)[C@H](Cc2c[nH]cn2)NC(=O)[C@H](Cc2ccc(O)cc2)NC(=O)[C@H](CO)NC(=O)[C@H]([C@@H](C)O)NC(=O)[C@H](C(C)C)NC1=O` (stereo partly shown) [MuSK9 PEG3 dimer] (I: {CH2CO}-[dY]WYLQPGYVNIVTSYHCC-NH2 / II: {CH2CO}-[dY]WYLQPGYVNIVTSYHCC-NH2; linker I:18-II:18 via X2; thioether I:N-I:17, II:N-II:17) gave an off-rate constant (koff) of 0.0017 s⁻¹ and an association rate constant (kon) of 780000 M⁻¹ s⁻¹.
Take `CC(C)C[C@@H]1NC(=O)[C@H](CC(C)C)NC(=O)[C@H](CO)NC(=O)[C@H](C(C)C)NC(=O)[C@H](C(C)C)NC(=O)[C@H](CC(N)=O)NC(=O)[C@H]([C@@H](C)O)NC(=O)[C@@H]2CCCN2C(=O)[C@H](Cc2ccccc2)NC(=O)[C@@H](Cc2ccc(O)cc2)NC(=O)CSC[C@@H](C(=O)N[C@@H](CSC2CC(=O)N(CCC(=O)NCCOCCOCCOCCOCCOCCOCCOCCOCCOCCOCCOCCNC(=O)CCN3C(=O)CC(SC[C@H](NC(=O)[C@@H]4CSCC(=O)N[C@H](Cc5ccc(O)cc5)C(=O)N[C@@H](Cc5ccccc5)C(=O)N5CCC[C@H]5C(=O)N[C@@H]([C@@H](C)O)C(=O)N[C@@H](CC(N)=O)C(=O)N[C@@H](C(C)C)C(=O)N[C@@H](C(C)C)C(=O)N[C@@H](CO)C(=O)N[C@@H](CC(C)C)C(=O)N[C@@H](CC(C)C)C(=O)N[C@@H](CCCCN)C(=O)N[C@@H](CO)C(=O)N4)C(N)=O)C3=O)C2=O)C(N)=O)NC(=O)[C@H](CO)NC(=O)[C@H](CCCCN)NC1=O` (stereo partly shown) [MuSK4 PEG11 dimer] (I: {CH2CO}-[dY]FPTNVVSLLKSCC-NH2 / II: {CH2CO}-[dY]FPTNVVSLLKSCC-NH2; linker I:14-II:14 via X1; thioether I:N-I:13, II:N-II:13): at human MuSK, the off-rate (koff) came to 0.0056 s⁻¹ and the on-rate (kon) was 810000 M⁻¹ s⁻¹. Also, the Kd on human MuSK (read-out: Kd) is 6.9 nM.
For `C[C@@H](Oc1cc(-c2cnn(C3CCNCC3)c2)cnc1N)c1c(Cl)ccc(F)c1Cl` [Crizotinib], the “number of AChR clusters” value in assay [1] was “comparable to that in the negative control group (DMSO alone)”.
